Laboratory results published in PMC12369479 (Journal of Experimental Botany, 2025).

Columns and labels:
[1] = target: T1, ZmADK3 R132A variant (Zea mays, UniProt A0A1D6E5Z5, R132A); assay: ADK activity, coupled reaction with PK and LDH; assay type: biochemical; settings: 100 µM Ado, 10 mM ATP, 30 °C
Procedure: (§1) All ZmADK3 mutants were cloned by 30 cycle PCRs using tail-to-tail oriented phosphorylated primers, with the mutation being located at the 5′ end of one of the primers. The following mutants were cloned using the primers given in Supplementary Table S1: D19A, R132A, N222A, E225A, N295A, and D299A. The products were treated with DpnI restriction enzyme, gel purified, and ligated using T4 DNA ligase (www.thermofisher.com). Clones were transformed into T7 express I^qE. coli competent cells.
(§2) Substrate analogs were purchased from Sigma-Aldrich (www.sigmaaldrich.com). The ADK activity was measured spectrophotometrically on an Agilent 8453 UV-Vis spectrophotometer (www.agilent.com) at 30 °C using a coupled reaction with pyruvate kinase (PK) and lactate dehydrogenase (LDH) (www.sigmaaldrich.com) ([Blondin et al., 1994]). In this assay, PK converts ADP produced by ADK and phosphoenolpyruvate (PEP) to pyruvate. Subsequently, LDH then converts pyruvate to lactate using the coenzyme NADH, with the conversion monitored at 340 nm. The reaction was conducted in 50 mM Tris–HCl buffer at pH 7.5, containing 50 mM KCl, 6 mM MgCl2, 300 µM PEP, 200 µM NADH, 10 mM ATP, 2 U of PK, and 2.5 U of LDH, using various nucleoside substrates. Kinetic constants were determined using GraphPad Prism 8.0 software (www.graphpad.com). Each measurement was performed six times using repetitive purified enzymes. The activities of all five ADKs were also measured by HPLC ([Moffatt et al., 1991]). The reaction mixture comprised 50 mM Tris–HCl pH 7.5, 5 mM MgCl2, 0.5 mM DTT, 30 mM NaF, 5 mM ATP, 40 µM substrate, and 2–150 ng of purified ADK, depending on the isoform. The reaction was incubated at 30 °C for up to 1 h. […] Similarly, the conversion of cytokinin ribosides to monophosphates was followed on a LiChrosphere 60 RP-Select B (5 µm) LiChroCART column 125-4 column equilibrated with 10 mM triethylamine at pH 5.4 plus 10% methanol, and stepwise eluted with 100% methanol.

[2] = target: T2, ZmADK3 N295A variant (Zea mays, UniProt A0A1D6E5Z5, N295A); assay: ADK activity, coupled reaction with PK and LDH; assay type: biochemical; settings: 100 µM Ado, 10 mM ATP, 30 °C
Procedure: as §1, §2

[3] = target: T3, ZmADK3 N222A variant (Zea mays, UniProt A0A1D6E5Z5, N222A); assay: ADK activity, coupled reaction with PK and LDH; assay type: biochemical; settings: 100 µM Ado, 10 mM ATP, 30 °C
Procedure: as §1, §2

[4] = target: T4, ZmADK3 E225A variant (Zea mays, UniProt A0A1D6E5Z5, E225A); assay: ADK activity, coupled reaction with PK and LDH; assay type: biochemical; settings: 100 µM Ado, 10 mM ATP, 30 °C
Procedure: as §1, §2

[5] = target: T5, ZmADK3 D299A variant (Zea mays, UniProt A0A1D6E5Z5, D299A); assay: ADK activity, coupled reaction with PK and LDH; assay type: biochemical; settings: 100 µM Ado, 10 mM ATP, 30 °C
Procedure: as §1, §2

[6] = target: ZmADK3 D19A variant (Zea mays, UniProt A0A1D6E5Z5, D19A); assay: ADK activity, coupled reaction with PK and LDH; assay type: biochemical
Procedure: as §1, §2

[7] = target: T1, ZmADK3 R132A variant; assay: Binding affinity by MST
Procedure: as §1
(§3) The microscale thermophoresis (MST) method was used to determine the binding affinity of various ribosides for ZmADK2 and PpADK1. Proteins were fluorescently labeled with RED-tris-NTA dye (www.nanotemper-technologies.com) using a 1:1 dye/protein molar ratio. The labeled protein was adjusted to 100–300 nM in 50 mM HEPES buffer pH 7.5, 1 mM MgCl2, and 0.2% Tween. Measurements were performed in premium capillaries on a Monolith NT.115 instrument at 30 °C with 5 s/30 s/5 s laser off/on/off times, respectively, with continuous sample fluorescence recording. Thermal stability was measured by nano-differential scanning fluorimetry on a Prometheus NT.48 instrument (www.nanotemper-technologies.com) in various buffers covering a pH (7.0–9.5) and temperature range (25–95 °C), with a heating rate of 1 °C min^–1, and using NT melting control software. Protein unfolding was measured by detecting the temperature-induced change in tryptophan fluorescence intensity at emission wavelengths of 330±5 nm and 350±5 nm. The melting temperature (Tm) was deduced from the maximum of the first derivative of the fluorescence ratios F350/F330.

[8] = target: T2, ZmADK3 N295A variant; assay: Binding affinity by MST
Procedure: as §1, §3

[9] = target: T3, ZmADK3 N222A variant; assay: Binding affinity by MST
Procedure: as §1, §3

[10] = target: T4, ZmADK3 E225A variant; assay: Binding affinity by MST
Procedure: as §1, §3

[11] = target: T5, ZmADK3 D299A variant; assay: Binding affinity by MST
Procedure: as §1, §3

[12] = system: all three maize ADKs; assay: ADK activity, coupled reaction (summary for maize enzymes); assay type: biochemical, Zea mays; settings: saturating 100 µM concentration
Procedure: Substrate analogs were purchased from Sigma-Aldrich (www.sigmaaldrich.com). The ADK activity was measured spectrophotometrically on an Agilent 8453 UV-Vis spectrophotometer (www.agilent.com) at 30 °C using a coupled reaction with pyruvate kinase (PK) and lactate dehydrogenase (LDH) (www.sigmaaldrich.com) ([Blondin et al., 1994]). In this assay, PK converts ADP produced by ADK and phosphoenolpyruvate (PEP) to pyruvate. Subsequently, LDH then converts pyruvate to lactate using the coenzyme NADH, with the conversion monitored at 340 nm. The reaction was conducted in 50 mM Tris–HCl buffer at pH 7.5, containing 50 mM KCl, 6 mM MgCl2, 300 µM PEP, 200 µM NADH, 10 mM ATP, 2 U of PK, and 2.5 U of LDH, using various nucleoside substrates. Kinetic constants were determined using GraphPad Prism 8.0 software (www.graphpad.com). Each measurement was performed six times using repetitive purified enzymes. The activities of all five ADKs were also measured by HPLC ([Moffatt et al., 1991]). The reaction mixture comprised 50 mM Tris–HCl pH 7.5, 5 mM MgCl2, 0.5 mM DTT, 30 mM NaF, 5 mM ATP, 40 µM substrate, and 2–150 ng of purified ADK, depending on the isoform. The reaction was incubated at 30 °C for up to 1 h. […]

T5 sequence (A0A1D6E5Z5 entry or part of it D299A): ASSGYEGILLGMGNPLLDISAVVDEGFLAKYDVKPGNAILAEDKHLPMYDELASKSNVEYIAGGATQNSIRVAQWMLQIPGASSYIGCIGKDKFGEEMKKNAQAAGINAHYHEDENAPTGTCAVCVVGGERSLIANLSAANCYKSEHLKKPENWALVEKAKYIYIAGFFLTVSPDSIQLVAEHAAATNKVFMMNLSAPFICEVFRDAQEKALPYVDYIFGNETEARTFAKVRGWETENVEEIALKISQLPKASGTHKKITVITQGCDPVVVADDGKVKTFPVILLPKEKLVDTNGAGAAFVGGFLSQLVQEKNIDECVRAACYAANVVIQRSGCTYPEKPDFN
T4 sequence (A0A1D6E5Z5 entry or part of it E225A): as the sequence (A0A1D6E5Z5 entry or part of it D299A) above, with E224A, A298D counted along it
Sequence of ZmADK3 D19A variant (A0A1D6E5Z5 entry or part of it D19A): as the sequence (A0A1D6E5Z5 entry or part of it D299A) above, with D18A, A298D counted along it
T1 sequence (A0A1D6E5Z5 entry or part of it R132A): as the sequence (A0A1D6E5Z5 entry or part of it D299A) above, with R131A, A298D counted along it
T3 sequence (A0A1D6E5Z5 entry or part of it N222A): as the sequence (A0A1D6E5Z5 entry or part of it D299A) above, with N221A, A298D counted along it
T2 sequence (A0A1D6E5Z5 entry or part of it N295A): as the sequence (A0A1D6E5Z5 entry or part of it D299A) above, with N294A, A298D counted along it

## Nc1ncnc2c1ncn2[C@@H]1O[C@H](CO)[C@@H](O)[C@H]1O [Ado, adenosine]
[1]
  Specific activity: 7.4±0.3 nkat mg^–1
[2]
  Specific activity: 10.1±0.1 nkat mg^–1
[3]
  Specific activity: 13.4±0.7 nkat mg^–1
[4]
  Specific activity: 1.9±0.4 nkat mg^–1
[5]
  Specific activity: 1.8±0.1 nkat mg^–1
[6]; D19A variant of ZmADK3 vs WT, Ado substrate
  reduction in specific activity: 10 fold
[6]; D19A, 100 µM Ado, 10 mM ATP, 30 °C
  Specific activity: 3.3±0.4 nkat mg^–1
[7]
  Kd: 270 ± 40 nM
[8]
  Kd: 274000 ± 10000 nM
[9]
  Kd: 300 ± 130 nM
[10]
  Kd: 320 ± 90 nM
[11]
  Kd: 10300 ± 4100 nM
[11]; D299A variant of ZmADK3
  lower affinity for Ado than the WT: ~ 37 times
[12]
  activity: 30–40 nkat mg^–1
